Reference: patent US20240209456A1, “METHODS AND COMPOSITIONS RELATED TO CELL-CYCLE RNA's” (BETH ISRAEL DEACONESS MEDICAL CENTER, priority 2021, published 2024)
“Also recorded” adds a separate entry of the source.

Experiments:
acH2A.Z = experiment: nascent ChIP-qPCR (nasChIP) with acH2A.Z antibody; type: cell-based, human; conditions: for restoration of acH2A.Z at c-MYC locus after DRB reversal: HL-60, 2 hrs after DRB wash-out, MG149 200 μM, TH1834 500 μM; for restoration of acH2A.Z enrichment at PU1 locus after DRB reversal: HL-60, MG149 and TH1834 treatments
Description: (§1) To confirm the results of the ChIP-Seq, and to track the deposition of the H2A.Z, acH2A.Z nascent chromatin immunoprecipitation (nasChIP-PCR) was performed with the antibodies to H2A.Z, acH2A.Z and TIP60, as nasChIP-PCR can be used to track histone deposition. Cells were synchronized with a double thymidine block, released into S Phase and treated with DRB for 2 hrs. The medium was supplemented with the EdU DNA analog to enable collection of nascent chromatin DNA (FIG. 4A). […] The results of these experiments provide an important link between the suppressed c-MYC SPEARs expression and the reduced levels of the replacement histone H2A.Z, as an even greater degree of the loss of the acetylated acH2A.Z forms at the TSS of the c-MYC locus. Similar results were obtained for another gene locus, PU1 (FIG. 4F, right panels).
(§2) Cells were synchronized with a double thymidine block and released into S Phase with DMSO/DRB added. After 2 hours (during which H2A.Z levels remained unaffected, but SPEARs and mRNA levels drop, see FIG. 10A), cells were washed and then incubated for a further 2 hours with or without the TIP60 inhibitors. This interval is sufficient for the levels of both the c-MYC mRNAs and its SPEARs to be restored when the TIP60 inhibitors are absent (results shown in FIG. 11B). The medium was supplemented with the EU RNA and EdU DNA analogs to enable collection of nascent RNAs and newly formed chromatin that had escaped the drug-induced inhibition of transcription or acetylation. After 2 hours with the TIP60 inhibitors present (MG-149 at 200 μM and TH1834 at 500 μM), during which the levels of acH2A.Z dropped (see FIG. 11A), cells were crosslinked and subjected to nasChIP and nascent RNA expression analyses (nas-qRT-PCR) (FIG. 6B). Collected RNAs were biotinylated by click chemistry, isolated on streptavidin beads and analyzed by nas-qRT-PCR (see “Methods” below for details; FIG. 8A; bottom panel).
(§3) To further confirm that SPEARs realize their c-MYC regulatory function directly through the TIP60/acH2A.Z pathway, the differences in chromatin occupancy of H2A.Z, acH2A.Z and TIP60 were assessed after inhibition of transcription (“DRB”), reversal of inhibition (“DRB REV”) and reversal of inhibition in the presence of the two TIP60 inhibitors, using nasChIP-qPCR. […] By analyzing the nascent RNAs and chromatin, only the immediate changes in c-MYC expression and TIP60, acH2A.Z and H2A.Z occupancy were examined within the locus as imposed by the inhibition of transcription and/or acetylation. […] When the two HAT inhibitors are present, the reversal of transcriptional inhibition can only restore the enrichment levels of the unmodified H2A.Z and TIP60 (FIG. 6D; left and right panels), but not the levels of acH2A.Z (middle panel). […] Furthermore, no enrichments of H2A.Z, acH2A.Z or TIP60 was detected within the Gene Desert locus (FIG. 11C). […] Similar results were obtained for the PU.1 locus (FIG. 11D and FIG. 11E). These findings using nasChIP are in line with the general trend obtained globally by ChIP-Seq. (FIG. 4C).
(§4) Nascent RNA/DNA capture was performed using Click-iT Nascent RNA Capture Kit (ThermoFisher) according to the manufacturer's instructions with minor modifications. Briefly, 1. Labeling the cells with EU/EdU. 200 mM EU or 30 mM EdU stock solutions were added to the cells, to a final concentration 0.5 mM or 30 μM, respectively. 2. Incubation. The cells were incubated for 1 or 2 hours. 3. RNA/DNA isolation. The cells were harvested and the RNA/DNA were isolated and dissolved in 14 μL of H2O. 4. Biotinylation of RNA/DNA by Click reaction. Click-iT reaction cocktail (50 μL per reaction) was prepared accordingly to manufacturer's instructions: a mixture containing 1× Click-iT EU buffer; 2 mM CuSO4; 1 mM Biotin azide; 13.25 μL of the isolated RNA; 10 mM Click-iT reaction buffer additive 1; 12 mM Click-iT reaction buffer additive 2 was prepared. After adding each component, the reaction cocktail was gently mixed by vortexing. […]

TIP60 = TIP60 (Homo sapiens, UniProt Q92993); experiment: nascent ChIP-qPCR (nasChIP) with TIP60 antibody; type: cell-based; set-up: endogenous in cells; host or cells: HL-60; conditions: for restoration of TIP60 at c-MYC locus after DRB reversal: HL-60, 2 hrs after DRB wash-out, MG149 200 μM, TH1834 500 μM; for restoration of TIP60 enrichment at PU1 locus after DRB reversal: HL-60, MG149 and TH1834 treatments
Description: as §1, §2, §3, §4

H2A.Z = experiment: nascent ChIP-qPCR (nasChIP) with H2A.Z antibody; type: cell-based, human; conditions: for restoration of H2A.Z distribution at c-MYC locus after DRB reversal: HL-60, 2 hrs after DRB wash-out, MG149 200 μM, TH1834 500 μM
Description: as §1
Cells were synchronized with a double thymidine block and released into S Phase with DMSO/DRB added. After 2 hours (during which H2A.Z levels remained unaffected, but SPEARs and mRNA levels drop, see FIG. 10A), cells were washed and then incubated for a further 2 hours with or without the TIP60 inhibitors. This interval is sufficient for the levels of both the c-MYC mRNAs and its SPEARs to be restored when the TIP60 inhibitors are absent (results shown in FIG. 11B). […] Collected RNAs were biotinylated by click chemistry, isolated on streptavidin beads and analyzed by nas-qRT-PCR (see “Methods” below for details; FIG. 8A; bottom panel).
To further confirm that SPEARs realize their c-MYC regulatory function directly through the TIP60/acH2A.Z pathway, the differences in chromatin occupancy of H2A.Z, acH2A.Z and TIP60 were assessed after inhibition of transcription (“DRB”), reversal of inhibition (“DRB REV”) and reversal of inhibition in the presence of the two TIP60 inhibitors, using nasChIP-qPCR. […] Furthermore, no enrichments of H2A.Z, acH2A.Z or TIP60 was detected within the Gene Desert locus (FIG. 11C). […]

[1] = HL-60 released into S Phase, DRB 2 hrs

Sequence of TIP60 (Q92993 whole entry): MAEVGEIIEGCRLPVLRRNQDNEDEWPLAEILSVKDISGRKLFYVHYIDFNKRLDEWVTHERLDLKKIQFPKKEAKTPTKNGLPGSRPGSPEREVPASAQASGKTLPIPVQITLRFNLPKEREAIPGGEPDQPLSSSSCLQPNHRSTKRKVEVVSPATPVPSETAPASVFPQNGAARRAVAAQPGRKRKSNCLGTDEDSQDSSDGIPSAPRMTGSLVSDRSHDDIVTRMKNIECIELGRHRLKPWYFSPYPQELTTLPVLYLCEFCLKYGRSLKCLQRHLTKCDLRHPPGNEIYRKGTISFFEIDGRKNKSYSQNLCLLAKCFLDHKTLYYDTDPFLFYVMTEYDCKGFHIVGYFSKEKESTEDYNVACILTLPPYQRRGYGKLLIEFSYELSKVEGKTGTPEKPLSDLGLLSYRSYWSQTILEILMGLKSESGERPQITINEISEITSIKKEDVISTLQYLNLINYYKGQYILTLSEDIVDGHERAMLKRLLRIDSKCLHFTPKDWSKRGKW

SMILES | acH2A.Z enrichment at PU1 locus (acH2A.Z; HL-60, DRB treatment) | acH2A.Z enrichment at c-MYC locus (acH2A.Z; [1]) | TIP60 enrichment at PU1 locus (TIP60; HL-60, DRB treatment) | TIP60 enrichment at c-MYC locus (TIP60; [1]) | H2A.Z enrichment at c-MYC locus (H2A.Z; [1]) | restoration of acH2A.Z at c-MYC locus after DRB reversal (acH2A.Z) | restoration of acH2A.Z enrichment at PU1 locus after DRB reversal (acH2A.Z) | restoration of TIP60 at c-MYC locus after DRB reversal (TIP60) | restoration of TIP60 enrichment at PU1 locus after DRB reversal (TIP60) | restoration of H2A.Z distribution at c-MYC locus after DRB reversal (H2A.Z)
OC[C@H]1O[C@@H](n2cnc3cc(Cl)c(Cl)cc32)[C@H](O)[C@@H]1O [DRB, 5,6-Dichlorobenzimidazole 1-β-D-ribofuranoside] | loss | diminished enrichment and loss | loss | diminished enrichment and loss | diminished enrichment; also recorded: partial loss |  |  |  |  | 
CCCCCCCc1ccc(CCc2cccc(O)c2C(=O)O)cc1 [MG149] |  |  |  |  |  | prevents the restoration | preventing the restoration | only slightly affecting | without affecting | only slightly affecting
O=C(O)Cn1nnc(-c2ccc(CN(CCCCOc3ccc(CN4CCCC4)cc3)CCc3ccccc3)cc2)n1 [TH1834] |  |  |  |  |  | prevents the restoration | preventing the restoration | only slightly affecting | without affecting | only slightly affecting
